Assay results published in the supplement of paper PMC13380429.

Legend:
Details in all cases: 72 h
Caco-2 [1] = assay: cell viability relative to DMSO; higher = less toxic
Vero E6 [2] = assay: as above
Calu-3 [3] = assay: as above
HepG2 [4] = assay: as above
U2OS [5] = assay: as above
Caco-2 [6] = assay: drug sensitivity score (DSS) for viability; higher = more toxic; extreme values may be limits of the assay
Vero E6 [7] = assay: as above
Calu-3 [8] = assay: as above
HepG2 [9] = assay: as above
U2OS [10] = assay: as above
Caco-2 [11] = assay: relative viability EC50 (midpoint between 100% and the lowest measured viability); higher = less toxic
Vero E6 [12] = assay: as above
Calu-3 [13] = assay: as above
HepG2 [14] = assay: as above
U2OS [15] = assay: as above

SMILES	cell viability (Caco-2 [1]; 1 nM) [%]	cell viability (Caco-2 [1]; 10 nM) [%]	cell viability (Caco-2 [1]; 100 nM) [%]	cell viability (Caco-2 [1]; 1000 nM) [%]	cell viability (Caco-2 [1]; 10000 nM) [%]	cell viability (Vero E6 [2]; 1 nM) [%]	cell viability (Vero E6 [2]; 10 nM) [%]	cell viability (Vero E6 [2]; 100 nM) [%]	cell viability (Vero E6 [2]; 1000 nM) [%]	cell viability (Vero E6 [2]; 10000 nM) [%]	cell viability (Calu-3 [3]; 1 nM) [%]	cell viability (Calu-3 [3]; 10 nM) [%]	cell viability (Calu-3 [3]; 100 nM) [%]	cell viability (Calu-3 [3]; 1000 nM) [%]	cell viability (Calu-3 [3]; 10000 nM) [%]	cell viability (HepG2 [4]; 1 nM) [%]	cell viability (HepG2 [4]; 10 nM) [%]	cell viability (HepG2 [4]; 100 nM) [%]	cell viability (HepG2 [4]; 1000 nM) [%]	cell viability (HepG2 [4]; 10000 nM) [%]	cell viability (U2OS [5]; 1 nM) [%]	cell viability (U2OS [5]; 10 nM) [%]	cell viability (U2OS [5]; 100 nM) [%]	cell viability (U2OS [5]; 1000 nM) [%]	cell viability (U2OS [5]; 10000 nM) [%]	drug sensitivity score (Caco-2 [6])	drug sensitivity score (Vero E6 [7])	drug sensitivity score (Calu-3 [8])	drug sensitivity score (HepG2 [9])	drug sensitivity score (U2OS [10])	relative viability EC50 (Caco-2 [11]) [µM]	relative viability EC50 (Vero E6 [12]) [µM]	relative viability EC50 (Calu-3 [13]) [µM]	relative viability EC50 (HepG2 [14]) [µM]	relative viability EC50 (U2OS [15]) [µM]
Cc1n[nH]c2ccc(-c3cncc(OC[C@@H](N)Cc4ccccc4)c3)cc12	96.7	102	97.8	92.2	27.3	101	106	96.3	66	5	105	102	93.4	103	41.3	103	95.8	106	53	1.7	99.6	99.8	97.7	88.3	2.8	5.3	9.7	2.9	11.3	7.3	2.28	1.3	3.43	1.04	2.18
O=C(Oc1cc(S(=O)(=O)c2ccccc2)ccc1[N+](=O)[O-])c1ccc(Cl)cc1	103	93.4	92.3	87.5	103	97.5	104	94.7	101	106	101	97.2	92.5	94.8	106	100	97.2	98.4	97.2	102	96.5	94.9	97.4	94.6	96.9	0	0	0	0	0	> 10	> 10	> 10	> 10	> 10
O=c1cc(N2CCOCC2)oc2c(-c3ccccc3)cccc12	109	94.9	89	96.5	81.9	99.8	97.4	96.1	92.4	77.1	98	93.7	97.4	98.2	76.5	93.5	101	110	105	86.1	97.5	95	94.2	97.8	92.3	0.6	1.3	1.1	0.1	0	> 10	> 10	> 10	> 10	> 10
c1ccc(CCCN2CCN(CCOC(c3ccccc3)c3ccccc3)CC2)cc1	104	95	94.4	92.9	85.6	114	104	106	96.5	95.9	102	98.4	103	95.9	99.7	92.4	91.6	99.2	99.7	85.1	101	97	100	98.1	97.8	0.3	0	0	0.2	0	> 10	> 10	> 10	> 10	> 10
CC(C)NC[C@@H](O)c1ccc(O)c(O)c1 (racemic) [isoprenaline]	96.5	90	89	92.9	93.9	101	97.6	101	107	79.8	93.6	104	94.4	92.3	98.2	109	98.6	96.5	100	101	96.8	98.9	95.5	99.7	103	0	0.4	0	0	0	> 10	> 10	> 10	> 10	> 10
BrC1C(Br)C(Br)C(Br)C(Br)C1Br (stereo not given) [1,2,3,4,5,6-hexabromocyclohexane]	96.4	93.6	97.3	102	98.4	99.7	107	101	105	93.9	106	104	104	87.3	105	95.8	106	89.1	99.8	90.2	99.1	96.4	101	95.1	101	0	0	0	0	0	> 10	> 10	> 10	> 10	> 10
CCN1CCCC1=O [1-ethyl-2-pyrrolidone]	93.6	99.6	99.4	88	95.2	103	103	97	97.9	95.3	97.9	104	104	98.6	104	99.1	99.1	94	99.9	97.2	95.9	98.4	104	95.5	102	0	0	0	0	0	> 10	> 10	> 10	> 10	> 10
